Assay results from paper PMC7156458, “Synthetic biology based construction of biological activity-related library of fungal decalin-containing diterpenoid pyrones” (Nature Communications, 2020).

Molecular target: Aβ42 (Homo sapiens, UniProt P05067)
Assay: Th-T (thioflavin-T) assay of Aβ42 aggregation
Type: biochemical
Conditions: for Th-T fluorescence of Aβ42 (sheet Fig. 7a), mean of three wells: head suffix _50 (concentration 50); for Th-T assay plate reading, mean of three wells (Supplementary Fig. 47): source data, Ab alone and No Ab as controls; for Th-T fluorescence, mean of three wells: Supplementary Fig. 47 source data

Aβ42, sequence (P05067 672-713): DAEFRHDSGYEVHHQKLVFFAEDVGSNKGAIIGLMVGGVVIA

`C=C1CCC2C(C)(CCC=C(C)C)C(O)CCC2(C)C1Cc1c(OC)oc(C)c(C(=O)OC)c1=O` (stereo not drawn) [Compound 14] was tested, and the “Th-T fluorescence of Aβ42 (sheet Fig. 7a), mean of three wells” value (“Th-T fluorescence of Aβ42” below) (reading M73) was 2.8491, the “Th-T fluorescence of Aβ42” value (reading M74) was 2.743 and the “Th-T fluorescence of Aβ42” value (reading M75) was 2.678. The “Th-T fluorescence of Aβ42” value (reading M76) was 2.6047, the “Th-T fluorescence of Aβ42” value (reading M77) was 2.524 and the “Th-T fluorescence of Aβ42” value (reading M78) was 2.476. The “Th-T fluorescence of Aβ42” value (reading M79) was 2.356, the “Th-T fluorescence of Aβ42” value (reading M80) was 2.329 and the “Th-T fluorescence of Aβ42” value (reading M81) was 2.257. The “Th-T fluorescence of Aβ42” value (reading M82) was 2.201, the “Th-T fluorescence of Aβ42” value (reading M83) was 2.154 and the “Th-T fluorescence of Aβ42” value (reading M84) was 2.095. For the same compound, the “Th-T assay plate reading, mean of three wells (Supplementary Fig. 47)” value (“Th-T assay plate reading, mean” for short) (measurement M1) was 0.2816, the “Th-T assay plate reading, mean” value (measurement M2) was 0.2424 and the “Th-T assay plate reading, mean” value (measurement M3) was 0.24. For the same compound, the “Th-T assay plate reading, mean” value (measurement M4) was 0.2537, the “Th-T assay plate reading, mean” value (measurement M5) was 0.2619 and the “Th-T assay plate reading, mean” value (measurement M6) was 0.2823. The “Th-T assay plate reading, mean” value (measurement M7) was 0.2966, the “Th-T assay plate reading, mean” value (measurement M8) was 0.3078 and the “Th-T assay plate reading, mean” value (measurement M9) was 0.3225. The “Th-T assay plate reading, mean” value (measurement M10) was 0.3472, the “Th-T assay plate reading, mean” value (measurement M11) was 0.3856 and the “Th-T assay plate reading, mean” value (measurement M12) was 0.4563. For the same compound, the “Th-T assay plate reading, mean” value (measurement M13) was 0.5559, the “Th-T assay plate reading, mean” value (measurement M14) was 0.6968 and the “Th-T assay plate reading, mean” value (measurement M15) was 0.8869. The “Th-T assay plate reading, mean” value (measurement M16) was 1.062, the “Th-T fluorescence, mean of three wells (Fig. 7a)” value (“Th-T fluorescence … (Fig. 7a)” for short) (reading M107, compound at 10 (head suffix _10)) was 2.856 and the “Th-T fluorescence … (Fig. 7a)” value (reading M107, compound at 20 (head suffix _20)) was 1.717. For the same compound, the “Th-T fluorescence … (Fig. 7a)” value (reading M107, compound at 50 (head suffix _50)) was 1.263, the “Th-T fluorescence … (Fig. 7a)” value (reading M108, compound at 10 (head suffix _10)) was 2.848 and the “Th-T fluorescence … (Fig. 7a)” value (reading M108, compound at 20 (head suffix _20)) was 1.693. The “Th-T fluorescence … (Fig. 7a)” value (reading M108, compound at 50 (head suffix _50)) was 1.239, the “Th-T fluorescence … (Fig. 7a)” value (reading M109, compound at 10 (head suffix _10)) was 2.86 and the “Th-T fluorescence … (Fig. 7a)” value (reading M109, compound at 20 (head suffix _20)) was 1.668. For the same compound, the “Th-T fluorescence … (Fig. 7a)” value (reading M109, compound at 50 (head suffix _50)) was 1.221, the “Th-T fluorescence … (Fig. 7a)” value (reading M110, compound at 10 (head suffix _10)) was 2.89 and the “Th-T fluorescence … (Fig. 7a)” value (reading M110, compound at 20 (head suffix _20)) was 1.691. For the same compound, the “Th-T fluorescence … (Fig. 7a)” value (reading M110, compound at 50 (head suffix _50)) was 1.198, the “Th-T fluorescence … (Fig. 7a)” value (reading M111, compound at 10 (head suffix _10)) was 2.887 and the “Th-T fluorescence … (Fig. 7a)” value (reading M111, compound at 20 (head suffix _20)) was 1.674. For the same compound, the “Th-T fluorescence … (Fig. 7a)” value (reading M111, compound at 50 (head suffix _50)) was 1.171, the “Th-T fluorescence … (Fig. 7a)” value (reading M112, compound at 10 (head suffix _10)) was 2.867 and the “Th-T fluorescence … (Fig. 7a)” value (reading M112, compound at 20 (head suffix _20)) was 1.668. The “Th-T fluorescence … (Fig. 7a)” value (reading M112, compound at 50 (head suffix _50)) was 1.153, the “Th-T fluorescence … (Fig. 7a)” value (reading M113, compound at 10 (head suffix _10)) was 2.843 and the “Th-T fluorescence … (Fig. 7a)” value (reading M113, compound at 20 (head suffix _20)) was 1.686. The “Th-T fluorescence … (Fig. 7a)” value (reading M113, compound at 50 (head suffix _50)) was 1.142, the “Th-T fluorescence … (Fig. 7a)” value (reading M114, compound at 10 (head suffix _10)) was 2.88 and the “Th-T fluorescence … (Fig. 7a)” value (reading M114, compound at 20 (head suffix _20)) was 1.678. The “Th-T fluorescence … (Fig. 7a)” value (reading M114, compound at 50 (head suffix _50)) was 1.107, the “Th-T fluorescence … (Fig. 7a)” value (reading M115, compound at 10 (head suffix _10)) was 2.899 and the “Th-T fluorescence … (Fig. 7a)” value (reading M115, compound at 20 (head suffix _20)) was 1.649. The “Th-T fluorescence … (Fig. 7a)” value (reading M115, compound at 50 (head suffix _50)) was 1.096, the “Th-T fluorescence … (Fig. 7a)” value (reading M116, compound at 10 (head suffix _10)) was 2.891 and the “Th-T fluorescence … (Fig. 7a)” value (reading M116, compound at 20 (head suffix _20)) was 1.656. For the same compound, the “Th-T fluorescence … (Fig. 7a)” value (reading M116, compound at 50 (head suffix _50)) was 1.094, the “Th-T fluorescence … (Fig. 7a)” value (reading M117, compound at 10 (head suffix _10)) was 2.891 and the “Th-T fluorescence … (Fig. 7a)” value (reading M117, compound at 20 (head suffix _20)) was 1.6485. For the same compound, the “Th-T fluorescence … (Fig. 7a)” value (reading M117, compound at 50 (head suffix _50)) was 1.063, the “Th-T fluorescence … (Fig. 7a)” value (reading M118, compound at 10 (head suffix _10)) was 2.882 and the “Th-T fluorescence … (Fig. 7a)” value (reading M118, compound at 20 (head suffix _20)) was 1.636. For the same compound, the “Th-T fluorescence … (Fig. 7a)” value (reading M118, compound at 50 (head suffix _50)) was 1.027, the “Th-T fluorescence … (Fig. 7a)” value (reading M119, compound at 10 (head suffix _10)) was 2.895 and the “Th-T fluorescence … (Fig. 7a)” value (reading M119, compound at 20 (head suffix _20)) was 1.645. For the same compound, the “Th-T fluorescence … (Fig. 7a)” value (reading M119, compound at 50 (head suffix _50)) was 1.02, the “Th-T fluorescence … (Fig. 7a)” value (reading M120, compound at 10 (head suffix _10)) was 2.912 and the “Th-T fluorescence … (Fig. 7a)” value (reading M120, compound at 20 (head suffix _20)) was 1.644. The “Th-T fluorescence … (Fig. 7a)” value (reading M120, compound at 50 (head suffix _50)) was 1.015, the “Th-T fluorescence … (Fig. 7a)” value (reading M121, compound at 10 (head suffix _10)) was 2.89 and the “Th-T fluorescence … (Fig. 7a)” value (reading M121, compound at 20 (head suffix _20)) was 1.621. For the same compound, the “Th-T fluorescence … (Fig. 7a)” value (reading M121, compound at 50 (head suffix _50)) was 1.008, the “Th-T fluorescence … (Fig. 7a)” value (reading M122, compound at 10 (head suffix _10)) was 2.911 and the “Th-T fluorescence … (Fig. 7a)” value (reading M122, compound at 20 (head suffix _20)) was 1.5939. The “Th-T fluorescence … (Fig. 7a)” value (reading M122, compound at 50 (head suffix _50)) was 0.9934, the “Th-T fluorescence … (Fig. 7a)” value (reading M123, compound at 10 (head suffix _10)) was 2.8989 and the “Th-T fluorescence … (Fig. 7a)” value (reading M123, compound at 20 (head suffix _20)) was 1.589. For the same compound, the “Th-T fluorescence … (Fig. 7a)” value (reading M123, compound at 50 (head suffix _50)) was 0.9605, the “Th-T fluorescence … (Fig. 7a)” value (reading M124, compound at 10 (head suffix _10)) was 2.906 and the “Th-T fluorescence … (Fig. 7a)” value (reading M124, compound at 20 (head suffix _20)) was 1.657. For the same compound, the “Th-T fluorescence … (Fig. 7a)” value (reading M124, compound at 50 (head suffix _50)) was 0.9345, the “Th-T fluorescence … (Fig. 7a)” value (reading M125, compound at 10 (head suffix _10)) was 2.918 and the “Th-T fluorescence … (Fig. 7a)” value (reading M125, compound at 20 (head suffix _20)) was 1.601. For the same compound, the “Th-T fluorescence … (Fig. 7a)” value (reading M125, compound at 50 (head suffix _50)) was 0.9471, the “Th-T fluorescence … (Fig. 7a)” value (reading M126, compound at 10 (head suffix _10)) was 2.913 and the “Th-T fluorescence … (Fig. 7a)” value (reading M126, compound at 20 (head suffix _20)) was 1.6231. The “Th-T fluorescence … (Fig. 7a)” value (reading M126, compound at 50 (head suffix _50)) was 0.9219, the “Th-T fluorescence … (Fig. 7a)” value (reading M127, compound at 10 (head suffix _10)) was 2.92 and the “Th-T fluorescence … (Fig. 7a)” value (reading M127, compound at 20 (head suffix _20)) was 1.639. For the same compound, the “Th-T fluorescence … (Fig. 7a)” value (reading M127, compound at 50 (head suffix _50)) was 0.9074, the “Th-T fluorescence … (Fig. 7a)” value (reading M128, compound at 10 (head suffix _10)) was 2.916 and the “Th-T fluorescence … (Fig. 7a)” value (reading M128, compound at 20 (head suffix _20)) was 1.631. For the same compound, the “Th-T fluorescence … (Fig. 7a)” value (reading M128, compound at 50 (head suffix _50)) was 0.8816, the “Th-T fluorescence, mean of three wells” value (time-course reading M97) was 1.587 and the “Th-T fluorescence, mean of three wells” value (time-course reading M98) was 1.593. The “Th-T fluorescence, mean of three wells” value (time-course reading M99) was 1.591, the “Th-T fluorescence, mean of three wells” value (time-course reading M100) was 1.596 and the “Th-T fluorescence, mean of three wells” value (time-course reading M101) was 1.605. The “Th-T fluorescence, mean of three wells” value (time-course reading M102) was 1.603, the “Th-T fluorescence, mean of three wells” value (time-course reading M103) was 1.613 and the “Th-T fluorescence, mean of three wells” value (time-course reading M104) was 1.605. For the same compound, the “Th-T fluorescence, mean of three wells” value (time-course reading M105) was 1.614, the “Th-T fluorescence, mean of three wells” value (time-course reading M106) was 1.61 and the “Th-T fluorescence, mean of three wells” value (time-course reading M107) was 1.627. For the same compound, the “Th-T fluorescence, mean of three wells” value (time-course reading M108) was 1.622, the “Th-T fluorescence, mean of three wells” value (time-course reading M109) was 1.637 and the “Th-T fluorescence, mean of three wells” value (time-course reading M110) was 1.6366. For the same compound, the “Th-T fluorescence, mean of three wells” value (time-course reading M111) was 1.648, the “Th-T fluorescence, mean of three wells” value (time-course reading M112) was 1.658 and the “Th-T fluorescence, mean of three wells” value (time-course reading M113) was 1.641. For the same compound, the “Th-T fluorescence, mean of three wells” value (time-course reading M114) was 1.648, the “Th-T fluorescence, mean of three wells” value (time-course reading M115) was 1.646 and the “Th-T fluorescence, mean of three wells” value (time-course reading M116) was 1.651.
